Read-outs that look alike come from different tables or passages of the source.
Columns and labels:
P-gp [1] = conditions: cited from earlier work
P-gp [2] = biological target: T1, P-gp (Homo sapiens, UniProt P08183)
P-gp [3] = biological target: T1, P-gp; assay: Calcein-AM efflux assay in KB CH^R 8-5 cells; conditions: for Calcein-AM Efflux % inhibition: 10 μM compound, 0.5 μM calcein-AM, 10 min, 37 °C; for P-gp efflux inhibitory activity (in words): calcein-AM and rhodamine 123 assays, 10 μM (Table 4); for inhibition at 10 min, 10 μM / inhibition at 10 µM: human, KB CH^R 8-5 cells; for inhibition at 10 µM: probe calcein-AM (0.5 μg/ml) and rhodamine 123 (0.5 μg/ml)
P-gp [4] = biological target: T1, P-gp; assay: Rhodamine 123 efflux assay in KB CH^R 8-5 cells; conditions: for Rh123 % inhibition: 10 μM compound, 0.5 μg/ml rhodamine 123, 45 min, 37 °C; for inhibition at 45 min, 10 µM: human, KB CH^R 8-5 cells, probe rhodamine 123 (0.5 μg/ml)
[5] = system: parental and P-gp overexpressing cell lines; assay: Cytotoxicity assay of quercetin and rutin alone; type: cell-based; conditions: concentrations up to 10 μM, flavonoid alone
P-gp [6] = biological target: T1, P-gp; assay: in vitro
[7] = read-out: Actual IC50 (Literature) (A), ref Literature (source not given)

T1 sequence (P08183 whole entry): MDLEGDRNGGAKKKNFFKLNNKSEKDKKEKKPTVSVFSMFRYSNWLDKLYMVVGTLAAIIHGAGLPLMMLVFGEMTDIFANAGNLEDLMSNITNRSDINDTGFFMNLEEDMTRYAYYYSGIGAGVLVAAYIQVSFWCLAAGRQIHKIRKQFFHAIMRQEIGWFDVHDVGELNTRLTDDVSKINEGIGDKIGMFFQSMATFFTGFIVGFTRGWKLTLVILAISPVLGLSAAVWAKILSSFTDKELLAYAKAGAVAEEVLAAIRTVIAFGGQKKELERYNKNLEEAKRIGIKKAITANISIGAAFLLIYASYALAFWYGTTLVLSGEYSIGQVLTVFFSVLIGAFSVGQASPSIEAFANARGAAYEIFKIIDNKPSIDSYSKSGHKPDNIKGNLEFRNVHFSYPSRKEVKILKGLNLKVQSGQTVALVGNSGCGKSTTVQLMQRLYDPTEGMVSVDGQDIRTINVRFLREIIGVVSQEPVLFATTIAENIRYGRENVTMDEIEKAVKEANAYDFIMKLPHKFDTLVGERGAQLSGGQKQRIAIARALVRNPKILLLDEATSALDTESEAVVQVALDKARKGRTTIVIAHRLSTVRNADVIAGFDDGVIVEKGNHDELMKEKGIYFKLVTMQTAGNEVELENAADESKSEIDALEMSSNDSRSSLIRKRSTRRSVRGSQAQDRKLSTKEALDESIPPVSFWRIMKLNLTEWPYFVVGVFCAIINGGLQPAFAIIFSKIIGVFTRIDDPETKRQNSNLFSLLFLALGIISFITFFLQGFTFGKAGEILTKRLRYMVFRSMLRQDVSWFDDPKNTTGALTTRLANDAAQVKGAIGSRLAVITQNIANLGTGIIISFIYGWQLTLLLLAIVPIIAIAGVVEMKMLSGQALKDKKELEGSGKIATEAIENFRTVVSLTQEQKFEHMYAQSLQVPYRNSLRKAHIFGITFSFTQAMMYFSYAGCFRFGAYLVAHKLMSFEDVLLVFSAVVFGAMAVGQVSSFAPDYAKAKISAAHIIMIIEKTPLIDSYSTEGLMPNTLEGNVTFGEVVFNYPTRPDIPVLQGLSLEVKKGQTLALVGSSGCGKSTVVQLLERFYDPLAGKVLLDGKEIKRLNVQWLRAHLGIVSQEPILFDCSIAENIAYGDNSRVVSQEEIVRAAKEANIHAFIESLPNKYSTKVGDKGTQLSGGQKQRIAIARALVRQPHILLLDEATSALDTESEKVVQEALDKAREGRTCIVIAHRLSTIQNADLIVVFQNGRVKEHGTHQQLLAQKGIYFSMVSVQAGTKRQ

| Compound | IC50 (P-gp [1]; [7]) [µM] | P-gp efflux inhibitory activity (in words) (P-gp [3]) | inhibition at 10 min, 10 μM (P-gp [3]) [%] | inhibition at 45 min, 10 µM (P-gp [4]) [%] | further results |
| --- | --- | --- | --- | --- | --- |
| Oc1cc(O)c2c(c1)O[C@H](c1ccc(O)c(O)c1)[C@@H](O)C2 [(+)-Catechin] | 50 | – | – | – | – |
| O=C(O[C@@H]1Cc2c(O)cc(O)cc2O[C@@H]1c1ccc(O)c(O)c1)c1cc(O)c(O)c(O)c1 [(-)-Epicatechin 3-gallate] | 15.1 | – | – | – | IC50 (P-gp [2]): 33 µM; P-gp efflux inhibitory activity (in words) (P-gp [2]): moderate inhibitory activity; Calcein-AM Efflux % inhibition (P-gp [3]): 83.25%; Rh123 % inhibition (P-gp [4]): 80.56% |
| Oc1cc(O)c2c(c1)O[C@H](c1ccc(O)c(O)c1)[C@H](O)C2 [(-)-Epicatechin] | 0.4 | – | – | – | – |
| O=C(O[C@@H]1Cc2c(O)cc(O)cc2O[C@@H]1c1cc(O)c(O)c(O)c1)c1cc(O)c(O)c(O)c1 [(-)-Epigallocatechin gallate] | 43.8 | – | – | – | – |
| O=c1cc(-c2ccc(O)cc2)oc2cc(O)cc(O)c12 [Apigenin] | 10 | low inhibitory activity | 39.5 | 35 | – |
| O=c1cc(-c2ccccc2)oc2cc(O)c(O)c(O)c12 [Baicalein] | 1.5 | low inhibitory activity | 11 | 7.54 | inhibition at 10 µM (P-gp [3]): ≤ 15% |
| O=c1cc(-c2ccccc2)oc2cc(O)cc(O)c12 [Chrysin] | 1.5 | – | – | – | – |
| COc1cc(/C=C/C(=O)CC(=O)/C=C/c2ccc(O)c(OC)c2)ccc1O [Curcumin] | 1 | – | – | – | – |
| COc1cccc2c1C(=O)c1c(O)c3c(c(O)c1C2=O)C[C@@](O)(C(C)=O)C[C@@H]3O[C@H]1C[C@H](N)[C@H](O)[C@H](C)O1 [Daunorubicin, reference compound] | 1 | – | – | – | – |
| COc1cccc2c1C(=O)c1c(O)c3c(c(O)c1C2=O)C[C@@](O)(C(=O)CO)C[C@@H]3O[C@H]1C[C@H](N)[C@H](O)[C@H](C)O1 [Doxorubicin, reference compound] | 0.04 | – | – | – | – |
| Oc1cc(O)c2c(c1)O[C@H](c1cc(O)c(O)c(O)c1)[C@H](O)C2 [Epigallocatechin] | – | – | – | – | IC50 (P-gp [1]): 118 µM |
| O=C1C[C@@H](c2ccc(O)c(O)c2)Oc2cc(O)cc(O)c21 [Eriodictyol] | 50 | – | – | – | – |
| O=c1c(O)c(-c2ccc(O)c(O)c2)oc2cc(O)ccc12 [Fistein, Fisetin] | 16 | low inhibitory activity | 16.8 | 13.1 | inhibition at 10 µM (P-gp [3]): ≤ 15% |
| Oc1cc(O)c2c(c1)O[C@H](c1cc(O)c(O)c(O)c1)[C@@H](O)C2 [Gallocatechin] | – | – | – | – | IC50 (P-gp [1]): 136 µM |
| O=c1c(-c2ccc(O)cc2)coc2cc(O)cc(O)c12 [Genistein] | – | – | – | – | IC50 (P-gp [1]): 6.9 µM |
| COc1cc2c(=O)c(-c3ccc(O)cc3)coc2cc1O [Glycitein] | 5.99 | – | – | – | – |
| COc1ccc([C@@H]2CC(=O)c3c(O)cc(O[C@@H]4O[C@H](CO[C@@H]5O[C@@H](C)[C@H](O)[C@@H](O)[C@H]5O)[C@@H](O)[C@H](O)[C@H]4O)cc3O2)cc1O [Hesperidin] | 6.2 | low inhibitory activity | – | – | Calcein-AM Efflux % inhibition (P-gp [3]): 29.58%; Rh123 % inhibition (P-gp [4]): 21.09% |
| COc1ccc([C@@H]2CC(=O)c3c(O)cc(O)cc3O2)cc1O [Hesperitin] | 20 | – | – | – | – |
| O=c1c(O[C@@H]2O[C@H](CO)[C@@H](O)[C@H](O)[C@H]2O)c(-c2ccc(O)c(O)c2)oc2cc(O)cc(O)c12 [Isoquercitrin] | 24.3 | low inhibitory activity | 19.8 | 18.4 | – |

| Compound | IC50 (P-gp [1]; [7]) [µM] | P-gp efflux inhibitory activity (in words) (P-gp [3]) | inhibition at 10 min, 10 μM (P-gp [3]) [%] | inhibition at 45 min, 10 µM (P-gp [4]) [%] | further results |
| --- | --- | --- | --- | --- | --- |
| O=c1c(O)c(-c2ccc(O)cc2)oc2cc(O)cc(O)c12 [Kaempferol] | 4.8 | low inhibitory activity | 33.8 | 25.1 | – |
| O=c1cc(-c2ccc(O)c(O)c2)oc2cc(O)cc(O)c12 [Luteolin] | – | low inhibitory activity | 12.6 | 11.5 | IC50 (P-gp [1]): 0.8 µM; inhibition at 10 µM (P-gp [3]): ≤ 15% |
| O=c1c(O)c(-c2ccc(O)cc2O)oc2cc(O)cc(O)c12 [Morin] | 8.1 | low inhibitory activity | 42.8 | 40.5 | – |
| O=c1c(O)c(-c2cc(O)c(O)c(O)c2)oc2cc(O)cc(O)c12 [Myricetin] | 5.9 | moderate inhibitory activity | 57.2 | 55.8 | – |
| O=C1C[C@@H](c2ccc(O)cc2)Oc2cc(O)cc(O)c21 [Naringenin] | 16 | – | – | – | – |
| C[C@@H]1O[C@@H](O[C@H]2[C@H](Oc3cc(O)c4c(c3)O[C@H](c3ccc(O)cc3)CC4=O)O[C@H](CO)[C@@H](O)[C@@H]2O)[C@H](O)[C@H](O)[C@H]1O [Naringin] | – | moderate inhibitory activity | 70.2 | 75.6 | – |
| COc1cc2oc(-c3ccccc3)cc(=O)c2c(O)c1O [Negletein] | – | – | – | – | IC50 (P-gp [1]): 6.4 µM |
| Oc1ccc(-c2[o+]c3cc(O)cc(O)c3cc2O)cc1 [Pelargonidin] | 14 | moderate inhibitory activity | 46 | 47.2 | – |
| O=C1C[C@@H](c2ccccc2)Oc2cc(O)cc(O)c21 [Pinocembrin] | 5.8 | – | – | – | – |
| COc1cc(O)c2c(c1)O[C@H](c1ccccc1)CC2=O [Pinostrobin] | 5.4 | – | – | – | – |
| COc1cc(O)c2c(=O)c(-c3ccc(O)cc3)coc2c1 [Prunetin] | 6.4 | – | – | – | – |
| O=c1c(O)c(-c2ccc(O)c(O)c2)oc2cc(O)cc(O)c12 [Quercetin, 2-(3,4-dihydroxyphenyl)-3,5,7-trihydroxy-4H-chromen-4-one] | – | – | – | – | cell survival [5]: > 85% |
| COc1cc(O)c2c(=O)c(OC)c(-c3ccc(OC)c(OC)c3)oc2c1 [Retusin] | 12 | low inhibitory activity | 6.43 | 3.06 | inhibition at 10 µM (P-gp [3]): ≤ 15% |
| C[C@@H]1O[C@@H](OC[C@H]2O[C@@H](Oc3c(-c4ccc(O)c(O)c4)oc4cc(O)cc(O)c4c3=O)[C@H](O)[C@@H](O)[C@@H]2O)[C@H](O)[C@H](O)[C@H]1O [Rutin, 2-(3,4-dihydroxyphenyl)-5,7-dihydroxy-3-[α-L-rhamnopyranosyl-(1→6)-β-D-glucopyranosyloxy]-4H-chromen-4-one] | – | – | – | – | cell survival [5]: > 85% |
| Oc1ccc2c(c1)OCO2 [Sesamol] | 0.3 | – | – | – | – |
| COc1cc(C2Oc3cc([C@H]4Oc5cc(O)cc(O)c5C(=O)[C@@H]4O)ccc3OC2CO)ccc1O (some centres unmarked) [Silibinin] | 3.4 | moderate inhibitory activity | – | – | inhibition at 10 µM (P-gp [6]): 71.4%; Calcein-AM Efflux % inhibition (P-gp [3]): 63.75% |
| COc1ccc(-c2oc3cc(O)cc(O)c3c(=O)c2O)cc1O [Tamarixetin] | 10 | moderate inhibitory activity | 78.7 | 77.2 | IC50 (P-gp [3]): 46 µM |
| COc1ccc(-c2cc(=O)c3c(OC)c(OC)c(OC)c(OC)c3o2)cc1 [Tangeritin] | 3 | low inhibitory activity | – | – | Calcein-AM Efflux % inhibition (P-gp [3]): 14.23%; inhibition in calcein-AM and rhodamine-123 assays (P-gp [3]; 10 μM concentration, both calcein-AM and rhodamine-123 assay data): ≤ 15%; Rh123 % inhibition (P-gp [4]): 12.76% |
| O=c1c(O)cc([C@H]2Oc3cc(O)cc(O)c3C[C@H]2O)cc2c([C@H]3Oc4cc(O)cc(O)c4C[C@H]3O)cc(O)c(O)c12 [Theaflavine] | 60 | very effective P-gp efflux inhibitory activity | 88.8 | 83.2 | IC50 (P-gp [3]): 20 µM |
